Consider 5 molecules from ChEMBL document CHEMBL1158302, “Makaluvic acids A and B: novel alkaloids from the marine sponge Zyzzya fuliginosus” (1996).

Converted amounts (≈) assume the structure as drawn. The source made the active and inactive calls. The calls are words filed in the database; no cut-off is given here.

The subject of this assay is P388. The assay is described as follows: Cytotoxicity against mouse P388 cells. The settings on record: for EC50: read-out: ED50 (the source's name). The format is functional.

In the case of `CN1CCc2c[nH]c(C(=O)O)c2C1=O`, the outcome was inactive.
Still for that read-out and setting: with `Cn1cnc2c1c(N)nc(=O)n2C` the entry was “inactive”.
`Cn1cc2c3c1C(=O)C(N)=CC3=NCC2` [MAKALUVAMINE A]: the EC50 worked out at 0.4 µg/mL (≈ 1.99 µM).
As to `Cn1cc2c3c1C(=O)C(N/C=C/c1ccc(O)cc1)=CC3=NCC2` [MAKALUVAMINE E], the EC50 is 0.6 µg/mL (≈ 1.88 µM).
On to `Cn1cc2c3c1C(=O)C(NCCc1ccc(O)cc1)=CC3=NCC2` [MAKALUVAMINE K], for which the EC50 stood at 0.7 µg/mL (≈ 2.18 µM).
